{"source": "patent US4778824A", "about": "“Method for suppressing a transplantation immunity and treating an allergic disease and an autoimmune disease” (Zaidan Hojin Biseibutsu Kagaku Kenkyu Kai, priority 1984, dated 1988)", "key": {"[1]": {"system": "T-lymphocyte", "experiment": "Inhibition of Con A-induced reaction of T-lymphocyte blastogenesis (3H-thymidine uptake, BALB/c spleen cells)", "assay_type": "cell-based, BALB/c mice", "settings": "Con A 5 μg/ml, 72 h; for ^3 H--thymidine uptake: ± S.D.", "method": "(§1) The present inventors conducted tests to evaluate the actions of spergualin against the reaction of lymphocyte blastogenesis in accordance with the method of Waithe et al. (Waithe et al., Handbook of Experimental Immunology, page 26.1, 1978).\n(§2) Spleen cells from BALB/c mice were distritubed among wells in a microplate so that each well contained 2×10^5 cells/0.2 ml. The compound was added to all wells but one, the latter being used as a control. Con A (5 μg/ml) was added to all the wells and the so prepared cell suspensions were cultivated in a 5% CO2 incubator for 72 hours at 37° C. Eight hours before the completion of the incubation, 1 μCi of ^3 H-thymidine was added to each well and the uptake of the thymidine by the cultured cells was measured with a liquid scintillation counter to estimate the progress of the reaction of T-lymphocyte blastogenesis. The percentage inhibition of the blastogenesis by the test compound was calculated by: […] wherein Adpm indicates the uptake count for the addition of only Con A and Bdpm, the count for the addition of both Con A and the test compound."}, "[2]": {"system": "B-lymphocyte", "experiment": "Inhibition of LPS-induced reaction of B-lymphocyte blastogenesis (3H-thymidine uptake)", "assay_type": "cell-based, BALB/c mice", "settings": "LPS 100 μg/ml; for ^3 H--thymidine uptake: ± S.D.", "method": "as §1, §2\nThe uptake of ^3 H-thymidine by B-cell was measured in accordance with the method used in Experiment 1, except that the inducer Con A was replaced by 100 μg/ml of LPS from E. coli. The percentage inhibition of blastogenesis by the test compound was also determined by the same method as used in Experiment 1."}, "[3]": {"system": "IgM antibody production", "experiment": "Inhibition of IgM antibody production against sheep red blood cells (plaque-forming cells)", "assay_type": "in vivo, CDF 1 mice", "settings": "3 days; for IgM plaque-forming cell count: ± S.D.", "from_the_text": "Additionally, in accordance with the method of Jerne et al. (Jerne et al., Cell-bound Antibodies, pp. 109-122, 1963), the inventors examined the inhibitory action of spergualin on humoral immunity which is primarily the domain of the B-lymphocytes. The test procedure consisted of counting the number of spleen cells that were extracted from mice sensitized by antigenic sheep red blood cells and which formed immunoglobulin M (IgM) plaques. […] As summarized in Experiments 4 and 5 spergualin inhibited the production of IgG and IgE.\nCDF 1 mice (6-10 wk old, female) were immunized by intravenous injection of 1×10^8 sheep red blood cells. The mice were intraperitoneally administered varying doses (see Table 3 below) of the test compound for a period of 3 days starting from the day following the intravenous injection. Four days later, spleen cells were isolated from the mice and the number of IgM plaque-forming cells was counted by a known method (Yata et al.; Gan to Kagaku Ryoho (Cancer and Chemotherapy), vol. 2, pp. 903-908, 1975). The percentage inhibition of IgM antibody production was calculated by (1-B/A)×100 wherein A is the count for a control group (given physiological saline) and B, for the treated group."}, "[4]": {"system": "IgG antibody production", "experiment": "Inhibition of IgG antibody production against sheep red blood cells (plaque-forming cells)", "assay_type": "in vivo, CDF 1 mice", "settings": "50 mg/kg/day i.p.; for IgG plaque forming cell count: ± S.D., significant (P < 0.0001); for inhibition at 50 mg/kg/day: Mus musculus, Erythrocyte, ip, IgG", "method": "CDF 1 mice (6-10 wk old, female) were immunized by intravenous injection of 1×10^8 sheep red blood cells. The mice were intraperitoneally administered 50 mg/kg/day of the test compound for a period of 4 days starting on the day following the immunization or 3 days after that day. Seven days after the sensitization, spleen cells were isolated and the number of IgG plaque forming cells was counted by a known method (Yata et al., supra). As in Experiment 3, the percentage inhibition of IgG antibody production was determined."}, "[5]": {"system": "graft-versus-host disease", "experiment": "Delay of graft-versus-host disease in irradiated CBA mice transplanted with C57BL/6 bone marrow cells and spleen cells", "assay_type": "in vivo", "settings": "Donor C57BL/6, 10 days", "method": "Female CBA mice of 9 week-old and female C57BL/6 mice of 9 week-old were used. A group consisted of 10 mice. Bone marrow cells (10^7) and spleen cells (5×10^6) from CBA mice and C57BL/6 mice were injected i.v. into the whole body irradiation (850 rad) CBA mice. Spergualin was administered i.p. once a day for 10 days starting on one day after the injection of bone marrow cells and spleen cells. The data is indicated as the median survival time."}, "[6]": {"system": "experimental aplastic anemia", "experiment": "Effect on experimental aplastic anemia in mice", "assay_type": "in vivo, C3H/HeN mice", "settings": "10 days; for MST (mean survival time): ± S.D.", "from_the_text": "Female C3H/HeN mice (Mls^c) of 10 week-old and female CBA mice (Mls^d) of 10 week-old were used. A group consisted of 10 mice. CBA lymph node cells (10^7) were i.v. into C3H/HeN mice after being subjected to 600 rads of whole-body X-irradiation, spergualin was given i.p. once a day for 10 days. The data is indicated as the mean survival time ±S.D."}, "[7]": {"settings": "Exp. 1, 3.13 mg/kg i.p. once a day"}, "[8]": {"settings": "Exp. 2, 6.25 mg/kg i.p. once a day"}, "[9]": {"settings": "Exp. 2, 25.0 mg/kg i.p. once a day"}, "[10]": {"settings": "Exp. 2, 50.0 mg/kg i.p. once a day"}}, "note": "Where a name gives a salt, the structure may show the parent alone.", "data": [{"smiles": "N=C(N)NCCCCC(O)CC(=O)NC(O)C(=O)NCCCCNCCCN", "note": "(stereo not shown) [spergualin (trihydrochloride)]", "values": [{"measurement": "^3 H--thymidine uptake", "setting": "[1]; 10 μg/ml", "value": "30,214 ± 25,033 dpm"}, {"measurement": "^3 H--thymidine uptake", "setting": "[1]; 100 μg/ml", "value": "788 ± 182", "unit": "dpm"}, {"measurement": "inhibition at 10 µg/mL", "setting": "[1]; Mus musculus, T-lymphocyte, 10 μg/ml", "value": 76.7, "unit": "%"}, {"measurement": "inhibition at 100 µg/mL", "setting": "[1]; Mus musculus, T-lymphocyte, 100 μg/ml", "value": 99.4, "unit": "%"}, {"measurement": "^3 H--thymidine uptake", "setting": "[2]; 10 μg/ml", "value": "38,842 ± 21,573 dpm"}, {"measurement": "^3 H--thymidine uptake", "setting": "[2]; 100 μg/ml", "value": "396 ± 216", "unit": "dpm"}, {"measurement": "inhibition at 10 µg/mL", "setting": "[2]; Mus musculus, 10 μg/ml", "value": 83.4, "unit": "%"}, {"measurement": "inhibition at 100 µg/mL", "setting": "[2]; Mus musculus, 100 μg/ml", "value": 99.8, "unit": "%"}, {"measurement": "IgM plaque-forming cell count", "setting": "[3]; 1 mg/kg/day i.p.", "value": "1,304 ± 188 cells/10^6 spleen cells × 100"}, {"measurement": "IgM plaque-forming cell count", "setting": "[3]; 5 mg/kg/day i.p., significant (P < 0.001)", "value": "632 ± 87 cells/10^6 spleen cells × 100"}, {"measurement": "IgM plaque-forming cell count", "setting": "[3]; 10 mg/kg/day i.p., significant (P < 0.001)", "value": "392 ± 87 cells/10^6 spleen cells × 100"}, {"measurement": "IgM plaque-forming cell count", "setting": "[3]; 25 mg/kg/day i.p., significant (P < 0.001)", "value": "149 ± 53 cells/10^6 spleen cells × 100"}, {"measurement": "IgM plaque-forming cell count", "setting": "[3]; 50 mg/kg/day i.p., significant (P < 0.001)", "value": "64 ± 24 cells/10^6 spleen cells × 100"}, {"measurement": "inhibition at 1 mg/kg/day", "setting": "[3]; Mus musculus, Erythrocyte, ip, 72 h, IgM, 1 mg/kg/day i.p.", "value": 10.3, "unit": "%"}, {"measurement": "inhibition at 5 mg/kg/day", "setting": "[3]; Mus musculus, Erythrocyte, ip, 72 h, IgM, 5 mg/kg/day i.p.", "value": 56.5, "unit": "%"}, {"measurement": "inhibition at 10 mg/kg/day", "setting": "[3]; Mus musculus, Erythrocyte, ip, 72 h, IgM, 10 mg/kg/day i.p.", "value": 73, "unit": "%"}, {"measurement": "inhibition at 25 mg/kg/day", "setting": "[3]; Mus musculus, Erythrocyte, ip, 72 h, IgM, 25 mg/kg/day i.p.", "value": 89.7, "unit": "%"}, {"measurement": "inhibition at 50 mg/kg/day", "setting": "[3]; Mus musculus, Erythrocyte, ip, 72 h, IgM, 50 mg/kg/day i.p.", "value": 95.5, "unit": "%"}, {"measurement": "IgG plaque forming cell count", "setting": "[4]; days 1-4 after sensitization", "value": "17 ± 16", "unit": "cells/10^6 spleen cells"}, {"measurement": "IgG plaque forming cell count", "setting": "[4]; days 3-6 after sensitization", "value": "19 ± 15", "unit": "cells/10^6 spleen cells"}, {"measurement": "inhibition at 50 mg/kg/day", "setting": "[4]; days 1-4 after sensitization", "value": 96.7, "unit": "%"}, {"measurement": "inhibition at 50 mg/kg/day", "setting": "[4]; days 3-6 after sensitization", "value": 96.3, "unit": "%"}, {"measurement": "80-day survivors, Survivors/Total", "setting": "[5]; 3.13 mg/kg i.p. once a day", "value": "2/10"}, {"measurement": "MST (median survival time)", "setting": "[5]; 3.13 mg/kg i.p. once a day", "value": 33.0, "unit": "days"}, {"measurement": "80-day survivors, Survivors/Total", "setting": "[5]; 6.25 mg/kg i.p. once a day", "value": "3/10"}, {"measurement": "MST (median survival time)", "setting": "[5]; 6.25 mg/kg i.p. once a day, P < 0.05", "value": 45.3, "unit": "days"}, {"measurement": "80-day survivors, Survivors/Total", "setting": "[5]; 12.5 mg/kg i.p. once a day", "value": "4/10"}, {"measurement": "MST (median survival time)", "setting": "[5]; 12.5 mg/kg i.p. once a day, P < 0.01", "value": 55.0, "unit": "days"}, {"measurement": "80-day survivors, Survivors/Total", "setting": "[5]; 25.0 mg/kg i.p. once a day", "value": "9/10"}, {"measurement": "MST (median survival time)", "setting": "[5]; 25.0 mg/kg i.p. once a day, P < 0.01", "value": "> 80.0", "unit": "days"}, {"measurement": "30-day survivors, Survivors/Total", "setting": "[6]; [7]", "value": "2/10"}, {"measurement": "MST (mean survival time)", "setting": "[6]; [7]", "value": "16.3 ± 8.1", "unit": "days"}, {"measurement": "30-day survivors, Survivors/Total", "setting": "[6]; Exp. 1, 6.25 mg/kg i.p. once a day", "value": "6/10"}, {"measurement": "MST (mean survival time)", "setting": "[6]; Exp. 1, 6.25 mg/kg i.p. once a day, P < 0.05", "value": "22.6 ± 9.7", "unit": "days"}, {"measurement": "30-day survivors, Survivors/Total", "setting": "[6]; Exp. 1, 12.5 mg/kg i.p. once a day", "value": "10/10"}, {"measurement": "MST (mean survival time)", "setting": "[6]; Exp. 1, 12.5 mg/kg i.p. once a day, P < 0.01", "value": "30.0 ± 0.0", "unit": "days"}, {"measurement": "30-day survivors, Survivors/Total", "setting": "[6]; Exp. 1, 25.0 mg/kg i.p. once a day", "value": "6/10"}, {"measurement": "MST (mean survival time)", "setting": "[6]; Exp. 1, 25.0 mg/kg i.p. once a day, P < 0.05", "value": "23.6 ± 8.6", "unit": "days"}, {"measurement": "30-day survivors, Survivors/Total", "setting": "[6]; [8]", "value": "3/10"}, {"measurement": "MST (mean survival time)", "setting": "[6]; [8]", "value": "20.2 ± 8.4", "unit": "days"}, {"measurement": "30-day survivors, Survivors/Total", "setting": "[6]; Exp. 2, 12.5 mg/kg i.p. once a day", "value": "6/10"}, {"measurement": "MST (mean survival time)", "setting": "[6]; Exp. 2, 12.5 mg/kg i.p. once a day, P < 0.05", "value": "23.0 ± 9.4", "unit": "days"}, {"measurement": "30-day survivors, Survivors/Total", "setting": "[6]; [9]", "value": "4/10"}, {"measurement": "MST (mean survival time)", "setting": "[6]; [9]", "value": "20.7 ± 8.5", "unit": "days"}, {"measurement": "30-day survivors, Survivors/Total", "setting": "[6]; [10]", "value": "0/10"}, {"measurement": "MST (mean survival time)", "setting": "[6]; [10]", "value": "12.6 ± 3.9", "unit": "days"}]}]}
